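GI50 = concentration required for 50% inhibition of growth.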
Test system: HL-60(TB) leukemia
Assay: growth of human tumour cells (NCI), 384-well format

CNNCc1ccc(C(=O)NC(C)C)cc1
GI50: 12.2 µM

— PubChem BioAssay (NCI)
